Experimental data reported in patent publication US20250320213A1, “Nitrogen-Containing Heterocyclic Compounds” (Pfizer Inc., priority 2024, published 2025).

What follows are compounds tested against T1, STAT6 (Homo sapiens, UniProt P42226) (assay: STAT6 Reporter Luciferase Assay (IL-13 stimulated HaCaT keratinocyte NanoLuc reporter cells)). Conditions: IL-13 stimulated HaCaT STAT6 NanoLuc reporter cells; read-out: Reporter EC50.
T1 construct: stably transfected HaCaT keratinocyte cell line, which expresses NanoLuc luciferase reporter gene under the transcriptional control of the STAT6 responsive promoter; endogenous in cells; host or cells: HaCaT keratinocyte reporter cell line (stably transfected with a NanoLuc reporter)
T1 sequence (P42226 1-847): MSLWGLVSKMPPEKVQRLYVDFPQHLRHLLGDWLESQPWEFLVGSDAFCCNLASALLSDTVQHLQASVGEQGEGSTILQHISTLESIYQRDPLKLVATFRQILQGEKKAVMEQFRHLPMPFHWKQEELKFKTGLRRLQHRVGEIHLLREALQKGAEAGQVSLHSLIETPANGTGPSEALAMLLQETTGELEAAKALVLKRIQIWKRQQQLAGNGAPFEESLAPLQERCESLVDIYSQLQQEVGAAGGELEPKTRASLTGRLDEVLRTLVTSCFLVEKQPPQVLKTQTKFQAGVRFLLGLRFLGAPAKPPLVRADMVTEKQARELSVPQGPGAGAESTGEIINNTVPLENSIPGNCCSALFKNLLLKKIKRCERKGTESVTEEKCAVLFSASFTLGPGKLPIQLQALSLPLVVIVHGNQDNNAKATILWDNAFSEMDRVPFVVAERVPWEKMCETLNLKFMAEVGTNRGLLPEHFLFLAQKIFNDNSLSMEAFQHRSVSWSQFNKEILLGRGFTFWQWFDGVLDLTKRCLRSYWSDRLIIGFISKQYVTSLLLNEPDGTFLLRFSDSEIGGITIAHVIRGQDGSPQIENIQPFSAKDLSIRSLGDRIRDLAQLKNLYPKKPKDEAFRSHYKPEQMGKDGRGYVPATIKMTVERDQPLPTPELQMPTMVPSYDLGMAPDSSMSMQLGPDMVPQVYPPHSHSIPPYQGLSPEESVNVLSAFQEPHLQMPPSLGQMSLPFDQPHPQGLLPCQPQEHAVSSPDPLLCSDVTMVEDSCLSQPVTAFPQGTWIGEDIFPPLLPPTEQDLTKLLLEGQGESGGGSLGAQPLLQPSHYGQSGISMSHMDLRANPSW
Format: cell-based
Protocol: Pharmacological measurements of STAT6 transcriptional activity through the IL-13-IL-13 receptor/IL-4 receptor pathway were made with a stably transfected HaCaT keratinocyte cell line, which expresses NanoLuc luciferase reporter gene under the transcriptional control of the STAT6 responsive promoter for IL-13Ra2. The readout of the STAT6 activity utilized Promega Nano-Glo Luciferase assay kit.
The reporter cells were cultured in a growth media comprised of DMEM High Glucose, no calcium and no glutamine, 10% heat inactivated fetal bovine serum (HI FBS), 1% 100× Glutamax, and 100 U/mL Penicillin-Streptomycin (units of penicillin in 1 mL of streptomycin). Seven thousand cells were plated in 25 microliter (μL) per well in a 384-well, white bottom, tissue culture plate. Cells were cultured overnight at 37° C. The next day, test compounds (solubilized and serially diluted in DMSO, in an 11 point, 4-fold dilution series in duplicate) were spotted, 60 nanoliters (nL) per well, into a 384 well v-bottom polypropylene plate. Thirty μL per well of 37° C. dosing media (Dulbecco's modified eagle medium (DMEM) High Glucose, no calcium and no glutamine with 2% HI FBS) was added to the compound plate. Growth media was removed from the cell plate, and the cells were washed with DPBS. Twenty μL per well of compounds diluted in dosing media were transferred from the compound plate to the cell plate and the compounds were further diluted with an additional 15 μL of dosing media in the cell plate: the cell plate was incubated for two hours at 37° C. After two hours, STAT6 activity was stimulated with the addition of 5 μL per well of IL-13 (R&D Systems) in dosing media with a final concentration of 0.12 nM IL13. Cells were incubated at 37° C. for 4 hours to allow for reporter gene expression, then all media was removed from the plate. The cell plates were treated with assay buffer and Luciferase substrate from Nano-Glo Luciferase Assay Kit for 15 min and then measured for luminescence on an EnVision 2105 multilabel reader (PerkinElmer).

SMILES | EC50
CC(C)n1nc(C(=O)NCc2ccc(NC(=O)N3CCC4(CCN(C)CC4)CC3)cc2)c2c1[C@@H](C)CN(c1ccc(C(=O)N(C)C)cc1)C2 [Example 749, (S)-N-(4-((5-(4-(dimethylcarbamoyl)phenyl)-1-isopropyl-7-methyl-4,5,6,7-tetrahydro-1H-pyrazolo[4,3-c]pyridine-3-carboxamido)methyl)phenyl)-9-methyl-3,9-diazaspiro[5.5]undecane-3-carboxamide] | 0.4 nM
CO[C@@H]1CN(C(=O)c2ccc(N3CCc4c(c(C(=O)NCc5ccc(NC(=O)N(C)C)cc5)nn4C(C)C)C3)nc2)C[C@H]1OC (racemic) [Example 333, rac-5-(5-((3R,4R)-3,4-dimethoxypyrrolidine-1-carbonyl)pyridin-2-yl)-N-(4-(3,3-dimethylureido)benzyl)-1-isopropyl-4,5,6,7-tetrahydro-1H-pyrazolo[4,3-c]pyridine-3-carboxamide] | 2800 nM
CC(C)n1nc(C(=O)NCc2ccc(NC(=O)N(C)C)cc2)c2c1CCN(c1ccc(C(=O)N3CCc4oncc4C3)cn1)C2 [Example 432, N-(4-(3,3-dimethylureido)benzyl)-1-isopropyl-5-(5-(4,5,6,7-tetrahydroisoxazolo[4,5-c]pyridine-5-carbonyl)pyridin-2-yl)-4,5,6,7-tetrahydro-1H-pyrazolo[4,3-c]pyridine-3-carboxamide] | 186 nM
CC(C)n1nc(C(=O)NCc2ccc(NC(=O)NC3(C)CNC3)c(F)c2)c2c1[C@@H](C)CN(c1ccc(C(=O)N(C)C)cc1)C2 [Example 685, (S)-5-(4-(dimethylcarbamoyl)phenyl)-N-(3-fluoro-4-(3-(3-methylazetidin-3-yl)ureido)benzyl)-1-isopropyl-7-methyl-4,5,6,7-tetrahydro-1H-pyrazolo[4,3-c]pyridine-3-carboxamide] | 2 nM
CC(C)n1nc(C(=O)NCc2ccc(NC(=O)N(C)C)cc2)c2c1CCN(c1ccc(C(=O)N3CCc4c(ncn4C)C3)cn1)C2 [Example 421, N-(4-(3,3-dimethylureido)benzyl)-1-isopropyl-5-(5-(1-methyl-4,5,6,7-tetrahydro-1H-imidazo[4,5-c]pyridine-5-carbonyl)pyridin-2-yl)-4,5,6,7-tetrahydro-1H-pyrazolo[4,3-c]pyridine-3-carboxamide] | 18 nM
CC(C)n1nc(C(=O)NCc2ccc(NC(=O)N(C)C)cc2)c2c1CCN(c1ccc(C(=O)N3CCNC(=O)C3(C)C)cn1)C2 [Example 217, 5-(5-(2,2-dimethyl-3-oxopiperazine-1-carbonyl)pyridin-2-yl)-N-(4-(3,3-dimethylureido)benzyl)-1-isopropyl-4,5,6,7-tetrahydro-1H-pyrazolo[4,3-c]pyridine-3-carboxamide] | 272 nM
CC(C)n1nc(C(=O)NCc2ccc(NC(=O)N(C)C)cc2)c2c1CCN(c1ccc(C(=O)N3Cc4cnn(C)c4C3)cn1)C2 [Example 363, N-(4-(3,3-dimethylureido)benzyl)-1-isopropyl-5-(5-(1-methyl-1,4,5,6-tetrahydropyrrolo[3,4-c]pyrazole-5-carbonyl)pyridin-2-yl)-4,5,6,7-tetrahydro-1H-pyrazolo[4,3-c]pyridine-3-carboxamide] | 7 nM
CC(C)n1nc(C(=O)NCc2ccc(NC(=O)N3CC[C@H](CN(C)C)C3)cc2)c2c1[C@@H](C)CN(c1ccc(C(=O)N(C)C)cc1)C2 [Example 756, (S)-N-(4-((R)-3-((dimethylamino)methyl)pyrrolidine-1-carboxamido)benzyl)-5-(4-(dimethylcarbamoyl)phenyl)-1-isopropyl-7-methyl-4,5,6,7-tetrahydro-1H-pyrazolo[4,3-c]pyridine-3-carboxamide] | 1 nM
CC(C)n1nc(C(=O)NCc2ccc(NC(=O)N(C)C)cc2)c2c1CCN(c1ccc(C(=O)N3CCc4ccccc4C3)cn1)C2 [Example 435, N-(4-(3,3-dimethylureido)benzyl)-1-isopropyl-5-(5-(1,2,3,4-tetrahydroisoquinoline-2-carbonyl)pyridin-2-yl)-4,5,6,7-tetrahydro-1H-pyrazolo[4,3-c]pyridine-3-carboxamide] | 10 nM
